This data set in a line: gradient 5% acetonitrile 3 min, to 50% in 2 min, to 85% in 15 min, held 3 min, 100 µL/min. Particulars: column: Zorbax Extend-C18 2.1 x 50 mm; eluents: water / acetonitrile, 0.1% formic acid. Summed up:
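Retention times of pure standards were taken from adduct peaks that were selected by computer and manually inspected. Over 3 months, mixtures of ~100 molecules were run by HPLC–quadrupole time-of-flight mass spectrometry in positive and negative ionization mode. The Zorbax Extend-C18 column (2.1 × 50 mm, 1.8 μm) ran at 100 μL/min in water and acetonitrile, each containing 0.1% formic acid, with 40 μL dead volume and 900 μL dwell volume.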
Compound `CC(C)Cn1c(=O)c(C(=O)NCc2ccc(N3CCCCC3)cc2)nc2cccnc21` returned an RP-LC retention time of 666 s.
The figure for `O=C(c1ccc(Cl)s1)N1CCN(c2nnc3ccccn23)CC1` is 675 s; for `COc1ccc(C)cc1NS(=O)(=O)c1cc2c(s1)CCN(C(=O)C1CC1)C2` it is 839 s; for `COc1ccc(S(=O)(=O)N2CCCn3ccnc3C2c2cnn(C)c2)cc1Cl` (stereo not given) it is 618 s.
The figure for `Cc1ccc(-c2ccc(OCC(=O)NC(C)(C)C)cc2)cc1` is 1100 s; for `Cc1nc(N2CCCC2)c2c(C(=O)Nc3ccc(Cl)cc3)c(C)oc2n1` it is 848 s; for `CCc1nc(-c2cccc(-c3noc(CNC(=O)Cc4ccc(Cl)cc4)n3)c2)cs1` it is 1100 s.
The figure for `CCOc1ccc(S(=O)(=O)N2CCCC(C(=O)Nc3ccccc3)C2)cc1` (stereo not given) is 999 s.
`Cc1nnc(-c2ccc3ccn(CC(=O)Nc4cccc(F)c4)c3c2)o1` came in with an RP-LC retention time of 808 s.
The figure for `COc1cccc(-c2nc(C3CCN(S(=O)(=O)c4ccc(C)c(C)c4)CC3)no2)c1` is 1180 s; for `Cc1ccc(C(=O)N2CCOc3ccc(N(C)C)cc3C2)s1` it is 632 s.
In turn, `CC(C)NC(=O)N(C)Cc1nc2cc(C(=O)N3CCCC3)ccc2n1C` showed an RP-LC retention time of 550 s.
The figure for `COc1ccc(OC)c(Nc2c(-c3ccc(C(=O)O)cc3)nc3cnccn23)c1` is 709 s; for `COc1ccc(NC(=O)C2CCN(c3nnc(-c4ccc(OC)cc4)o3)CC2)cc1` it is 824 s; for `O=C(Nc1cccc(Cl)c1)C1CCN(c2cc(N3CCCC3)ncn2)CC1` it is 714 s.
The figure for `CCOc1ccc(N2C(=O)Nc3ccccc3C2(O)C(=O)NCCCN2CCCCC2)cc1` (stereo not given) is 576 s; for `Cc1ccccc1Cn1c(CN2CCC(C(=O)NCCCN3CCCC3)CC2)cc2ccccc21` it is 646 s; for `Cc1ccc(CNC(=O)C2(C)Oc3cccnc3N(C)C2=O)o1` (stereo not given) it is 740 s.
Compound `Cc1cc(C)n(-c2ccccc2Cl)c(=O)c1C(=O)O` showed an RP-LC retention time of 787 s.
`COCCn1ccc2nc(C)c(C(=O)NCc3ccc(C)o3)cc2c1=O` gave an RP-LC retention time of 680 s.
In turn, `O=C(C1CCCN(c2ncnc3c2nc2n3CCCCC2)C1)N1CCN(c2ccc(Cl)cc2)CC1` (stereo not given) yielded an RP-LC retention time of 928 s.
Compound `COC(=O)c1cccc(NC(=O)c2sc3ncccc3c2-n2cccc2)c1` showed an RP-LC retention time of 1040 s.
With `COc1ccccc1N1CCN(C(=O)c2sc3ncccc3c2-n2cccc2)CC1`, the RP-LC retention time came to 963 s.
The figure for `Cc1ccc(C(=O)N2CCN(c3cc(-c4cccs4)[nH]n3)CC2)cc1C` is 808 s; for `COc1ccc(C2(C(=O)N3CCC(Cc4ncc(C)n4CC4CC4)C3)CC2)cc1` (stereo not given) it is 654 s.
In the case of `COc1cccc(C(=O)Nc2ccc3c(c2)Sc2ncccc2C(=O)N3C(C)C)c1OC`, the RP-LC retention time turned out to be 915 s.
The figure for `COc1cccc(C2CC(c3ccc(Cl)cc3)=NC3(CCN(C)CC3)N2)c1O` (stereo not given) is 606 s.
The figure for `COc1ccc2[nH]cc(CCNC(=O)c3cccc(Cl)c3)c2c1` is 840 s.
The figure for `COc1ccc2c(c1)c1ccc3c(c1n2C)C(=O)C=CC3=O` is 1120 s.
`Cc1cc2c(c(=O)n(-c3ccccc3)c(=O)n2CC(=O)Nc2ccccc2F)n1C` returned an RP-LC retention time of 803 s.
Turning to `O=C(CN1CCCc2nc(C3CC3)ncc2C1=O)NC1CC1`, the RP-LC retention time was 604 s.
The figure for `CN(C)c1ccc(C(=O)N2CCCC2c2nc(-c3ccccc3)no2)cc1` (stereo not given) is 986 s; for `O=C(NCCCN1CCCC1)C1CCN(Cc2cc3ccccc3n2Cc2ccccc2Cl)CC1` it is 609 s; for `O=C(O)CCC1CCCN(S(=O)(=O)c2ccc(F)cc2)C1` (stereo not given) it is 782 s.
`CN(C)c1ncccc1C(=O)Nc1ccccc1Cl` displayed an RP-LC retention time of 716 s.
The figure for `Cc1noc(C)c1S(=O)(=O)NCCn1c(C)cnc1-c1ccccc1` is 616 s.
`Nc1ccc(Oc2ccc(N)c([N+](=O)[O-])c2)cc1[N+](=O)[O-]` returned an RP-LC retention time of 899 s.
The figure for `Cc1ccc(Cl)c(NC(=O)Cc2csc(C)n2)c1` is 687 s.
`Cc1ccc2c(c1)N(Cc1ccc(Cl)cc1)N=C(C(=O)N1CCOCC1)S2(=O)=O` displayed an RP-LC retention time of 896 s.
Consider `CCc1nncn1C1CCN(C(=O)c2cc(C)cc(C)c2)CC1`, for which the RP-LC retention time was determined as 655 s.
The figure for `COc1ccc(NC(=O)CN2CCN(Cc3ccc(F)cc3)C(=O)C2=O)cc1` is 697 s.
`O=C(Cc1cccs1)NCCS(=O)(=O)N1CCc2ccccc2C1` returned an RP-LC retention time of 764 s.
On to `Fc1ccc(-c2noc(-c3nc(-c4ccncc4)no3)n2)cc1F`, for which the RP-LC retention time turned out to be 1040 s.
`OCCN1CCN(CC(O)COCc2ccc(Cl)cc2)CC1` (stereo not given) returned an RP-LC retention time of 530 s.
The figure for `O=C(NC1CCCC1)N1CC(Oc2ccc(-c3nc(-c4ccccc4)no3)cc2)C1` is 1080 s.
In turn, `CCOC(=O)Cc1nc(-c2cncc(Br)c2)n[nH]1` had an RP-LC retention time of 673 s.
`COc1ccccc1NC(=O)c1cnc2c(c1)c(=O)n(C)c(=O)n2-c1ccccc1`: the RP-LC retention time amounted to 922 s.
The figure for `CC(C)N1C(=O)c2cccnc2Sc2cc(C(=O)N3CCCN(C)CC3)ccc21` is 596 s.
The figure for `O=S(=O)(Cc1ccccc1)N1CCC(OC2CCN(Cc3cccnc3)CC2)CC1` is 615 s.
The figure for `Cc1cccc(-c2noc(CN3C(=O)COc4ccc(Cl)cc43)n2)c1` is 1160 s; for `Cc1cc(C)c2c(n1)SCCN2C(=O)CCC(=O)NCc1ccc(Cl)cc1` it is 696 s; for `Cn1c(CNC(=O)c2ccc3c(c2)N(S(C)(=O)=O)CC3)nc2ccccc21` it is 604 s.
Turning to `CN(CCNC(=O)c1ccc2c(c1)NC(=O)C1CCCCN21)Cc1ccccc1` (stereo not given), the RP-LC retention time is 630 s.
The compound `CC(C)n1c(CNC(=O)C2CC(=O)N(c3n[nH]c4ccccc34)C2)nc2ccccc21` (stereo not given) had an RP-LC retention time of 614 s.
Turning to `COc1cccc(NC(=O)N2CCN(c3nc4ccccc4n3C)CC2)c1`, the RP-LC retention time is 616 s.
In the case of `CCNc1ncnc2sc3c(c12)CCN(C(=O)COC)C3`, the RP-LC retention time worked out at 601 s.
The figure for `Cc1ccc(-c2noc(-c3cc(N4CCN(C)CC4)nc4ccccc34)n2)cc1` is 835 s; for `CC(=O)N1CCC(NC(=O)Nc2cccc(C)c2)C1` (stereo not given) it is 635 s.
The figure for `O=C(O)c1cccc(-c2ccc(N3CCCCCC3)nc2)c1` is 627 s; for `O=C(CCc1c(-c2ccc(Br)cc2)nc2ccccn12)NC1CCCC1` it is 667 s.
